Experimental data taken from patent US20250353873A1, “COMPOUNDS AND METHODS FOR MODULATING APOE EXPRESSION” (Ionis Pharmaceuticals, Inc., priority 2024, published 2025).
Strand notation (5' to 3'): a small letter for the sugar, then the base; units joined by * are phosphorothioate-linked, units joined directly phosphodiester-linked; [ ] holds rarer units or linkages, { } end groups; capitals alone tell only the bases. [ms] = mesyl phosphoramidate linkage; e = 2'-O-(2-methoxyethyl) (MOE); [5mC] = 5-methylcytosine; d = 2'-deoxy (DNA)

Test system: human APOE RNA
Experiment: Activity in APOE C57BL/6NTac-Apoeem7250 knock-in mice, single ICV bolus, 16 weeks (Example 12)
Format: in vivo
Conditions: single ICV bolus 300 μg, 16 weeks post treatment, normalized to mouse Ppia
Description: Modified oligonucleotides described above were tested in the APOE C57BL/6NTac-Apoeem7250 knock-in mouse model described above.
APOE C57BL/6NTac-Apoeem7250 knock-in mice were divided into groups of 3-4 mice each. Each mouse received a single intracerebroventricular (ICV) bolus of 300 μg of modified oligonucleotide. A group of 4 mice received a single ICV bolus with PBS as a negative control.
Sixteen weeks post treatment, mice were sacrificed and RNA was extracted from cortical brain tissue and spinal cord for quantitative real-time RT-PCR analysis of RNA expression of APOE using primer probe set RTS3073 (described herein above). APOE RNA levels were normalized to mouse Ppia. Mouse Ppia was amplified using primer probe set m_cyclo24 (described herein above). Results are presented as percent human APOE RNA relative to the amount of human APOE RNA in PBS treated animals, (% control). Each experiment is identified in separate tables below.

Substance | APOE RNA (% control) Cortex [% control] | APOE RNA (% control) Spinal Cord [% control]
1693072: 5-10-5 MOE gapmer ACTTGGTGAATCTTTATTAA, linkages ssssosszzzzzsssssss (eA*e[5mC]*eT*eT*eGdG*dT*dG[ms]dA[ms]dA[ms]dT[ms]d[5mC][ms]dT*dT*dT*eA*eT*eT*eA*eA) [compound 1693072] | 82 | 61
1693070: 5-10-5 MOE gapmer ACTTGGTGAATCTTTATTAA, linkages ssssssszzzszsssosss (antisense eA*e[5mC]*eT*eT*eG*dG*dT*dG[ms]dA[ms]dA[ms]dT*d[5mC][ms]dT*dT*dT*eAeT*eT*eA*eA) [compound 1693070] | 86 | 76
1693064: 5-10-5 MOE gapmer ACTTGGTGAATCTTTATTAA, linkages soossssszzsssssosss (antisense eA*e[5mC]eTeT*eG*dG*dT*dG*dA[ms]dA[ms]dT*d[5mC]*dT*dT*dT*eAeT*eT*eA*eA) [compound 1693064] | 83 | 48
1693055: 5-10-5 MOE gapmer TTGGTGAATCTTTATTAAAC, linkages sososzzzsssssssosss (antisense eT*eTeG*eGeT*dG[ms]dA[ms]dA[ms]dT*d[5mC]*dT*dT*dT*dA*dT*eTeA*eA*eA*e[5mC]) [compound 1693055] | 95 | 67
1693058: 5-10-5 MOE gapmer TTGGTGAATCTTTATTAAAC, linkages sssoszzzssssszsosss (antisense eT*eT*eG*eGeT*dG[ms]dA[ms]dA[ms]dT*d[5mC]*dT*dT*dT*dA[ms]dT*eTeA*eA*eA*e[5mC]) [compound 1693058] | 113 | 80
1693068: 5-10-5 MOE gapmer ACTTGGTGAATCTTTATTAA, linkages sssossszzzszsssssss (antisense eA*e[5mC]*eT*eTeG*dG*dT*dG[ms]dA[ms]dA[ms]dT*d[5mC][ms]dT*dT*dT*eA*eT*eT*eA*eA) [compound 1693068] | 86 | 72
1693139: 6-10-4 MOE gapmer ACTTGGTGAATCTTTATTAA, linkages ssssssszzzssssszsss (eA*e[5mC]*eT*eT*eG*eG*dT*dG[ms]dA[ms]dA[ms]dT*d[5mC]*dT*dT*dT*dA[ms]eT*eT*eA*eA) [compound 1693139] | 92 | 97
1693065: 5-10-5 MOE gapmer ACTTGGTGAATCTTTATTAA, linkages soossssszzsssssssss (antisense eA*e[5mC]eTeT*eG*dG*dT*dG*dA[ms]dA[ms]dT*d[5mC]*dT*dT*dT*eA*eT*eT*eA*eA) [compound 1693065] | 82 | 46
1693080: 6-10-4 MOE gapmer TTGGTGAATCTTTATTAAAC, linkages ssssoszzszssszssoss (eT*eT*eG*eG*eTeG*dA[ms]dA[ms]dT*d[5mC][ms]dT*dT*dT*dA[ms]dT*dT*eAeA*eA*e[5mC]) [compound 1693080] | 99 | 88
1693061: 5-10-5 MOE gapmer TTGGTGAATCTTTATTAAAC, linkages sssoszzzsssszzsssss (antisense eT*eT*eG*eGeT*dG[ms]dA[ms]dA[ms]dT*d[5mC]*dT*dT*dT[ms]dA[ms]dT*eT*eA*eA*eA*e[5mC]) [compound 1693061] | 91 | 99
1693138: 6-10-4 MOE gapmer CTTGGTGAATCTTTATTAAA, linkages sssssozzzsssszzsoss (e[5mC]*eT*eT*eG*eG*eTdG[ms]dA[ms]dA[ms]dT*d[5mC]*dT*dT*dT[ms]dA[ms]dT*eTeA*eA*eA) [compound 1693138] | 90 | 85
1693100: 6-10-4 MOE gapmer CTTGGTGAATCTTTATTAAA, linkages sssssszzzssssszsoss (e[5mC]*eT*eT*eG*eG*eT*dG[ms]dA[ms]dA[ms]dT*d[5mC]*dT*dT*dT*dA[ms]dT*eTeA*eA*eA) [compound 1693100] | 87 | 51
1693077: 6-10-4 MOE gapmer TTGGTGAATCTTTATTAAAC, linkages sosssszzszssszssoss (eT*eTeG*eG*eT*eG*dA[ms]dA[ms]dT*d[5mC][ms]dT*dT*dT*dA[ms]dT*dT*eAeA*eA*e[5mC]) [compound 1693077] | 98 | 76
1693110: 6-10-4 MOE gapmer CTTGGTGAATCTTTATTAAA, linkages sssssszzzsssszzssss (e[5mC]*eT*eT*eG*eG*eT*dG[ms]dA[ms]dA[ms]dT*d[5mC]*dT*dT*dT[ms]dA[ms]dT*eT*eA*eA*eA) [compound 1693110] | 113 | 92
1693104: 6-10-4 MOE gapmer CTTGGTGAATCTTTATTAAA, linkages ssossszzzssssszssss (e[5mC]*eT*eTeG*eG*eT*dG[ms]dA[ms]dA[ms]dT*d[5mC]*dT*dT*dT*dA[ms]dT*eT*eA*eA*eA) [compound 1693104] | 129 | 52
1693079: 6-10-4 MOE gapmer TTGGTGAATCTTTATTAAAC, linkages sssosszzszssszssoss (eT*eT*eG*eGeT*eG*dA[ms]dA[ms]dT*d[5mC][ms]dT*dT*dT*dA[ms]dT*dT*eAeA*eA*e[5mC]) [compound 1693079] | 93 | 106
1693106: 6-10-4 MOE gapmer CTTGGTGAATCTTTATTAAA, linkages sssssszzzssssszssss (e[5mC]*eT*eT*eG*eG*eT*dG[ms]dA[ms]dA[ms]dT*d[5mC]*dT*dT*dT*dA[ms]dT*eT*eA*eA*eA) [compound 1693106] | 78 | 71
1693046: 5-10-5 MOE gapmer CTTGGTGAATCTTTATTAAA, linkages ssssszzzzzsssssssss (antisense e[5mC]*eT*eT*eG*eG*dT[ms]dG[ms]dA[ms]dA[ms]dT[ms]d[5mC]*dT*dT*dT*dA*eT*eT*eA*eA*eA) [compound 1693046] | 106 | 80
1693059: 5-10-5 MOE gapmer TTGGTGAATCTTTATTAAAC, linkages ssssszzzssssszsssss (antisense eT*eT*eG*eG*eT*dG[ms]dA[ms]dA[ms]dT*d[5mC]*dT*dT*dT*dA[ms]dT*eT*eA*eA*eA*e[5mC]) [compound 1693059] | 89 | 98
1693053: 5-10-5 MOE gapmer TTGGTGAATCTTTATTAAAC, linkages ssssszzzsssssssosss (antisense eT*eT*eG*eG*eT*dG[ms]dA[ms]dA[ms]dT*d[5mC]*dT*dT*dT*dA*dT*eTeA*eA*eA*e[5mC]) [compound 1693053] | 99 | 99
